{"source": "patent US6756480B2", "about": "“Modulators of receptors for parathyroid hormone and parathyroid hormone-related protein” (Amgen Inc., priority 2000, dated 2004)", "key": {"[1]": {"test_system": "male BDF1 mice", "test": "Monotherapy in adult mice: twice-weekly PTH-(1-34)-Fc versus daily PTH-(1-34), tibial BMD by pQCT", "assay_type": "in vivo", "conditions": "3 weeks, PTH-(1-34)-Fc twice weekly, various doses", "procedure": "Daily PTH [PTH-(1-34)] was given at 80 μg/kg/day (20 nmol/kg/day).\nBriefly, male BDF1 mice (4 months of age) were treated twice per week by subcutaneous injection with various doses of PTH-(1-34)-Fc or with vehicle (PBS). Other mice were treated daily with SC injections of PTH-(1-34) at a dose of 80 μg/kg/day (20 nmol/kg/day), a treatment regimen which is optimal for increasing bone mass in rodents (M. Gunness-Hey and J. M. Hock, Metab. Bone Dis. & Rel. Res. 5:177-181, 1984). After 3 weeks, mice were sacrificed and tibiae were analyzed for bone mineral density (BMD) via pQCT (FIG. 10)."}, "[2]": {"test_system": "mice", "test": "Hypercalcemia assay: murine hypercalcemia model, single SC injection, blood ionized calcium", "assay_type": "in vivo", "conditions": "single SC injection, equimolar doses, blood ionized calcium", "procedure": "Mice were challenged with vehicle (PBS, —X—), or with PTH-(1-34) (open symbols) or with PTH-(1-34)-Fc (closed symbols). Doses were 156 nmol/kg (circles), 469 nmol/kg (triangles) or 1,560 nmol/kg (squares). Data represent group means, n=6 mice/group.\nWe tested the potency and duration of effect of PTH-(1-34)-Fc in a murine hypercalcemia model. Briefly, mice were injected once SC with varying doses of PTH-(1-34) or PTH-(1-34)-Fc, and peripheral blood was collected from the retroorbital sinus for determination of blood ionized calcium. The half-life and the potency of PTH-(1-34)-Fc was greater than that of PTH-(1-34), as evidenced by the sustained hypercalcemic response of mice to the former agent (FIG. 4). Hypercalcemia induced by PTH-(1-34) persisted for 6-24 h, while equimolar doses of PTH-(1-34)-Fc caused more sustained hypercalcemia (48-72 h). This duration of response is consistent with greater half-life of the PTH-(1-34)-Fc construct vs. PTH-(1-34)."}, "[3]": {"test_system": "rat osteoblast-like ROS 17/2.8 cells", "test": "cAMP accumulation assay (IBMX, 15 minute challenge, ELISA)", "assay_type": "cell-based", "conditions": "15 minutes", "procedure": "Cultures were treated with the phosphodiesterase inhibitor IBMX and then challenged for 15 minutes with various PTH fragments. CAMP was measured by ELISA.\nWe tested the relative ability of PTH-Fc constructs to stimulate cAMP accumulation in rat osteoblast-like ROS 17/2.8 cells. Cultures were treated with the phosphodiesterase inhibitor IBMX to promote the accumulation of cAMP. Cultures were then challenged for 15 minutes with either vehicle (PBS), or various PTH constructs."}, "[4]": {"test_system": "mice", "conditions": "non-Fc conjugated peptide, stated as usual behaviour; cited from earlier work"}, "[5]": {"test_system": "mice", "test": "Mouse bioassay: SC injection days 0, 5, 10; clinical chemistry (calcium, AP, TRAP) and tibial pQCT", "assay_type": "in vivo", "procedure": "Peripheral blood was obtained daily for 3 days following single subcutaneous injections of the indicated compounds.\nPeripheral quantitative computed tomography (pQCT) was performed on the proximal tibial metaphysis of mice on day 15, after injections of PTH constructs on day 0, 5 and 10.\nWe then tested the effects of PTH-(1-34), PTH-(1-34)-Fc, PTH-(1-31)-Fc and PTH-(1-30)-Fc in mice. Four week old male mice were injected on days 0, 5, and 10 with vehicle or with PTH fragments, by SC injection. Peripheral blood was obtained for clinical chemistry at 24, 48, and 72 h. Mice were killed on day 15, vertebrae, tibiae and femurs were harvested for histology and one tibia was collected for bone density measurements (peripheral quantitative computed tomography, pQCT). Clinical chemistry endpoints included total serum calcium, serum alkaline phosphatase (AP, a marker of osteoblast activity), and serum tartrate-resistant acid phosphatase (TRAP, a marker of osteoclast activity). For each animal, the ratio of AP:TRAP was calculated as an index of relative osteoblast activity compared to osteoclast activity. A higher AP:TRAP ratio would indicate a potentially more anabolic agent."}, "[6]": {"test_system": "Sprague Dawley (SD) rats", "test": "Anabolic assay: lumbar (L3) BMD by DEXA, PTH constructs with or without OPG-Fc", "assay_type": "in vivo", "conditions": "6-month-old male SD rats, DEXA Day 7; OPG-Fc 1 mg/kg once; PTH-(1-34) 20 nMoles/kg x3; PTH-(1-34)-Fc 60 nMoles/kg once", "procedure": "Briefly, 6-month-old male Sprague Dawley (SD) rats were divided into groups of 6. Baseline bone mineral density (BMD) was determined in the third lumbar vertebra (L3) of all rats by dual-energy X-ray absorptiometry (DEXA) (Day 0). Rats were then treated according to the following schedule:\nGroup 1: Vehicle controls (PBS, injected SC, Days 1, 3, and 5)\nGroup 2: OPG-Fc, single SC injection (1 mg/kg) on Day 1\nGroup 3: PTH-(1-34), SC injections on Days 1, 3, and 5, at 20 nMoles PTH/kg/injection. This represents an optimal anabolic PTH regimen.\nGroup 4: Same as group 3, but with a single OPG-Fc injection on Day 1.\nGroup 5: Single SC injection of PTH-(1-34)-Fc at 60 nMoles/kg, on Day 1. This represents a molar dose which is equivalent to the total dose of PTH-(1-34) received by group 3, but in a single injection.\nGroup 6: Same as group 5, but with a single OPG-Fc injection (SC, 1 mg/kg) on Day 1.\nDEXA of the lumbar spine was performed again on Day 7 to evaluate changes in BMD. […] The anabolic effect of a single treatment with PTH-(1-34)-Fc plus OPG-Fc was greater than that induced by multiple injections of PTH-(1-34), with or without OPG-Fc co-treatment.\nNormal 6 month old male rats were treated with PTH-Fc or PTH or vehicle by a single SC injection. Some rats also received a single SC injection of OPG. BMD was determined 7 days later by DEXA. Data represent means+SD, N=6 rats/group."}}}
{"substance": "human PTH(1-34) [PTH-(1-34), reference compound]", "values": [{"measurement": "cancellous BMD compared to vehicle", "setting": "[1]; PTH-(1-34) daily 80 μg/kg/day", "result": "significantly increased"}, {"measurement": "total tibial BMD compared to vehicle", "setting": "[1]; PTH-(1-34) daily 80 μg/kg/day", "result": "significantly increased"}, {"measurement": "cortical BMD in the tibia", "setting": "[1]; PTH-(1-34) daily", "result": "not significantly enhanced"}, {"measurement": "duration of hypercalcemia", "setting": "[2]", "result": "6 to 24", "unit": "h"}, {"measurement": "potency in cAMP accumulation relative to PTH-(1-31)-Fc and PTH-(1-30)-Fc", "setting": "[3]", "result": "slightly more potent"}, {"measurement": "duration of transient increase in serum calcium normally caused", "setting": "[4]", "result": 12, "unit": "h"}, {"measurement": "calculated AP:TRAP ratio", "setting": "[5]; 300 nmoles/kg", "result": "unchanged"}, {"measurement": "serum AP (osteoblast marker)", "setting": "[5]; 300 nmoles/kg (given for PTH-(1-34)-Fc), 72 h", "result": "unchanged"}, {"measurement": "serum calcium", "setting": "[5]; 300 nmoles/kg SC (equimolar), 24, 48, 72 h", "result": "not significantly different"}, {"measurement": "bone mineral density (proximal tibial metaphysis)", "setting": "[5]; 300 nmoles/kg on day 0, 5, 10, pQCT day 15", "result": "modest (non-significant) anabolic effect"}, {"measurement": "serum TRAP (osteoclast marker)", "setting": "[5]; mice, after single SC injection", "result": "not significantly changed"}, {"measurement": "BMD in L3 compared to PBS-treated rats", "setting": "[6]", "result": "increased modestly"}]}
